# Assays:
# A549 cells xenograft = assay: In vivo anti-tumor activity, A549 nude mouse model; conditions: for Weights (g) After treatment: body weight after treatment; for Weights (g) Before treatment: body weight before treatment
# Protocol: The nude mice were fed in the SPF-system, six mice in a cage. The nude mice were provided with standard food and water, maintained in the light and dark cycling conditions (12/12 h), room temperature 25±2° C., humidity 50±10%. The water and beddings were steriled and changed every day. The mice were fed in the maintenance room for a week before the experiments.
# Accurately weighed a certain amount of injection grade doxorubicin powder, added saline to obtain a 0.4 mg/mL test solution. The test solution is prepared avoiding light and handy for use.
# Human non-small cell lung cancer cell line A549 was resuscitated. The ratio of FBS in the culture was increased from 6% to 10%, so as to make the cells proliferated rapidly. When the cell coverage in the culture flask reached 80% or so (i.e., logarithmic growth phase), the A549 cells were digested and suspended. Using autoclaved PBS to wash the cells twice to remove the residual culture medium. And then the cells were resuspended with PBS and adjusted the cells concentration to 1×10^7 cells/mL.
# After the mice accustomed to the environment, under steriled condition, using disposable syringe to transfer A549 cells (1×10^7/mL) and subcutaneously inoculated in the flank of nude mice. 0.2 ml of suspension of A549 cells was injected into each nude mice and the procedure was finished within 30 min. The rest of the cells were subjected to culture and observed for any contamination, so as to provide information on whether the construction of animal model was success.
# After the inoculation of cancer cells was success and the volume of xenograft tumors reached 50 to 100 mm^3, the animals were divided randomly into 5 groups (high dosage, middle dosage, low dosage, positive control, blank control) and each group comprised 6 mice.
# The animals were administered once per day. The injection volume was adjusted according to the weight measured. The animals were administered for 12 days. Positive control group was injected with 2 mg/kg Doxorubicin. The animals were administered once every 3 days, and 4 times in the 12-day period. Blank control group was injected with saline solution.
# During the administration period, the living and mental state of the mice were observed every day. Body weight and tumor size was measured and recorded. The tumor size was measured using Vernier caliper and tumor volumes were calculated using the formula: V (mm^3)=½×L (mm)×W^2 (mm^2) in which L is the length and W is the width of the solid tumor nodules.
# 24 hrs after the last administration, the nude mice were sacrificed and the tumor was removed for volume measurements. Tumor inhibition rate was calculated.
# Each mouse was weighted 24 hours after administration. In the end of the experiment, the mice were sacrifice by treating at the neck area. The tumor was removed for volume measurements and took photos.
# The experimental data were analyzed by SPSS 13.0 software Comparison between groups were carried out by one-way ANOVA or two-sample comparison of U-test. Results were provided in mean±SE, difference with P<0.05 was deemed significant.
# [1] = test system: non-small cell lung cancer cell line (A549); assay: MTT inhibition of A549 cancer cell line; assay type: cell-based; conditions: Homo sapiens, A549, 72 hs
# Protocol: (§1) 1. Preparing test solutions: taking a certain amount of compounds 5, using dimethyl sulfoxide (DMSO) to dissolve the compound, and using cell growth medium for each corresponding cell line to dilute the solution to 5 concentrations of test solutions: 500, 250, 125, 62.5, 31.25 μg/mL. The positive control doxorubicin were diluted with cell growth medium for each corresponding cell line to 3 concentrations: 5, 2.5, 1.25 μM. Seven human cancer cell lines, including five adhesive cancer cell lines: human gastric cancer cell line (MKN-45), non-small cell lung cancer cell line (A549), nasopharyngeal carcinoma cell line (CNE1, CNE2), large cell lung cancer cell line (PC-9); and two suspensive cancer cell lines: human promyelocytic leukemia cell line (HL60), human chronic myelogenous leukemia cell line (K562). All seven human cancer cell lines are purchased from Shanghai Chinese Academy of Sciences Cell Bank and stored in School of Medicine of Fujian Medical University. The aforementioned seven cancer cell lines were recovered from the liquid nitrogen, and then cultured in 25 cm^2 flasks under the corresponding culture conditions of each cell lines (see Table 2). […] OD was measured with microplate reader under wavelength of 492 nm and then the inhibition rate was calculated. […]
# [2] = test system: large cell lung cancer cell line (PC-9); assay: MTT inhibition of PC-9 cancer cell line; assay type: cell-based; conditions: Homo sapiens, PC-9, 72 hs
# Protocol: as §1
# [3] = test system: human chronic myelogenous leukemia cell line (K562); assay: MTT inhibition of K562 cancer cell line; assay type: cell-based; conditions: K562, 72 hs
# Protocol: as §1
# [4] = test system: human promyelocytic leukemia cell line (HL60); assay: MTT inhibition of HL60 cancer cell line; assay type: cell-based; conditions: HL-60, HL60, 72 hs
# Protocol: as §1
# [5] = test system: nasopharyngeal carcinoma cell line (CNE1); assay: MTT inhibition of CNE1 cancer cell line; assay type: cell-based; conditions: Homo sapiens, CNE1, 72 hs
# Protocol: as §1
# [6] = test system: nasopharyngeal carcinoma cell line (CNE2); assay: MTT inhibition of CNE2 cancer cell line; assay type: cell-based; conditions: Homo sapiens, CNE-2, CNE2, 72 hs
# Protocol: as §1
# [7] = test system: human gastric cancer cell line (MKN-45); assay: MTT inhibition of MKN-45 cancer cell line; assay type: cell-based; conditions: MKN-45, 72 hs
# Protocol: as §1
# [8] = Solubility of Compound 5 when preparing the test solution; assay type: physicochemical
# Excerpt: Its water solution (or saline solution) was acidic. […] Suitable co-solvents were selected to enhance the solubility. Studied the solubility enhancing effects of Tween-80 (final concentration 0.02-2%, v/v), PEG-400 (final concentration <40%, v/v), 1, 2-propanediol (final concentration <40%, v/v), glycerol (final concentration <30%, v/v), and CMC-Na (final concentration 1-5%, w/v). […] Considering formulations comprising tween compounds may lead to hemolysis, PEG-400 was selected as the co-solvent.
# [9] = 2 mg/kg tail vein once every 3 days, 4 times in 12 days
# [10] = High dosage 30 mg/kg tail vein once per day, 12 days
# [11] = Low dosage 5 mg/kg tail vein once per day, 12 days
# [12] = Middle dosage 15 mg/kg tail vein once per day, 12 days
compound,measurement,setting,value
"COc1cccc2c1C(=O)c1c(O)c3c(c(O)c1C2=O)C[C@@](O)(C(=O)CO)C[C@@H]3O[C@H]1C[C@H](N)[C@H](O)[C@H](C)O1 [Doxorubicin, reference compound]",Tumor Weight-inhibitions(%),A549 cells xenograft; [9],56.8±5.6%
same,Tumor weights,A549 cells xenograft; [9],0.220 ± 0.037 g
same,Weights (g) After treatment,A549 cells xenograft; [9],23.6 ± 1.1 g
same,Weights (g) Before treatment,A549 cells xenograft; [9],22.7 ± 1.9 g
"O=c1cc(-c2ccc(Oc3c(-c4ccc(O)cc4)oc4cc(O)cc(O)c4c3=O)cc2)oc2cc(O)cc(O)c12 [Compound 5, 3-(4-(5,7-dihydroxy-4-oxo-4H-benzopyran-2-yl)phenoxyl)-5,7-dihydroxy-2-(4-hydroxyphenyl)-4H-benzopyran-4-one]",IC50,[1],13.2 ± 0.91 µg/mL
same,IC50,[2],21.8 ± 1.3 µg/mL
same,IC50,[3],16.8 ± 2.8 µg/mL
same,IC50,[4],18.3 ± 3 µg/mL
same,IC50,[5],49.3 ± 2.8 µg/mL
same,IC50,[6],13.3 ± 2.6 µg/mL
same,IC50,[7],33.2 ± 3.1 µg/mL
same,solubility at injection acceptable pH,[8]; pH adjusted to 6.0-8.0,still quite low
same,solubility in water,[8]; water,poorly dissolved in water
same,toxicity in nude mice,"A549 cells xenograft; 5-30 mg/kg tail vein once per day, 12 days",low
same,Tumor Weight-inhibitions(%),A549 cells xenograft; [10],62.2±21.3%
same,Tumor weights,A549 cells xenograft; [10],0.193 ± 0.056 g
same,Weights (g) After treatment,A549 cells xenograft; [10],24.4 ± 1.6 g
same,Weights (g) Before treatment,A549 cells xenograft; [10],22.4 ± 1.2 g
same,Tumor Weight-inhibitions(%),A549 cells xenograft; [11],36.9±6.1%
same,Tumor weights,A549 cells xenograft; [11],0.305 ± 0.039 g
same,Weights (g) After treatment,A549 cells xenograft; [11],23.4 ± 0.7 g
same,Weights (g) Before treatment,A549 cells xenograft; [11],22.8 ± 0.8 g
same,Tumor Weight-inhibitions(%),A549 cells xenograft; [12],43.7±19.8%
same,Tumor weights,A549 cells xenograft; [12],0.287 ± 0.101 g
same,Weights (g) After treatment,A549 cells xenograft; [12],24.9 ± 1.0 g
same,Weights (g) Before treatment,A549 cells xenograft; [12],23.9 ± 1.5 g

# — patent US20170360743A1, “BIFLAVONE COMPOUND AND USES THEREOF FOR TREATING CANCERS AND PREPARING DRUGS” (FUJIAN MEDICAL UNIVERSITY, priority 2015, published 2017)
